Activity calls are given as the source filed them. The calls are words filed in the database; no cut-off is given here.
Legend:
[1] = molecular target: Cyclin-dependent kinase 2 (Homo sapiens, UniProt P24941); experiment: Inhibition of Cdk2 (unknown origin) using GST-SLP-76 as peptide substrate incubated for 10 mins in presence of [gamma-33P]ATP by scintillation counter assay
[2] = molecular target: T1, Tyrosine-protein kinase ITK/TSK (Homo sapiens) (UniProt Q08881); experiment: Inhibition of Itk in EGF-stimulated human A549 cells assessed as reduction in PLCgamma1 phosphorylation at <=10 uM incubated for 20 mins by Western blotting analysis; type: cell-based
T1 sequence (whole entry): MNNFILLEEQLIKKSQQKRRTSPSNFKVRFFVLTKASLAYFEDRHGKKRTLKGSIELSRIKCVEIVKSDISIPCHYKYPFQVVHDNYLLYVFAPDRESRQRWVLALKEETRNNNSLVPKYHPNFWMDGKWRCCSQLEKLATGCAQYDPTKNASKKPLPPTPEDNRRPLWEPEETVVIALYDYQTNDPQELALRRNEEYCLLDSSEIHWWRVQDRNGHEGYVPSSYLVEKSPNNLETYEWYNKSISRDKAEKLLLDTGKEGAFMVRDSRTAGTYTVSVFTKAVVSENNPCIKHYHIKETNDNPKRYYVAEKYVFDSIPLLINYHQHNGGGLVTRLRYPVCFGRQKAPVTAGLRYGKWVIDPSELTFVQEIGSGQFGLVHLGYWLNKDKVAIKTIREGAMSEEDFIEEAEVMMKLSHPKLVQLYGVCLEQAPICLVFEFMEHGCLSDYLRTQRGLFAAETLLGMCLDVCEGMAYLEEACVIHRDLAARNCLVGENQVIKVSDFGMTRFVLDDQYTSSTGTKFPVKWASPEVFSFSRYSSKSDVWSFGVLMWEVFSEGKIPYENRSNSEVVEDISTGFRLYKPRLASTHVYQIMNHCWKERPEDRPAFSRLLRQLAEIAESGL

[3] = molecular target: T2, Cytoplasmic tyrosine-protein kinase BMX (Homo sapiens, UniProt P51813); experiment: Inhibition of Bmx (unknown origin) using GST-SLP-76 as peptide substrate incubated for 10 mins in presence of [gamma-33P]ATP by scintillation counter assay
T2 sequence (P51813 whole entry): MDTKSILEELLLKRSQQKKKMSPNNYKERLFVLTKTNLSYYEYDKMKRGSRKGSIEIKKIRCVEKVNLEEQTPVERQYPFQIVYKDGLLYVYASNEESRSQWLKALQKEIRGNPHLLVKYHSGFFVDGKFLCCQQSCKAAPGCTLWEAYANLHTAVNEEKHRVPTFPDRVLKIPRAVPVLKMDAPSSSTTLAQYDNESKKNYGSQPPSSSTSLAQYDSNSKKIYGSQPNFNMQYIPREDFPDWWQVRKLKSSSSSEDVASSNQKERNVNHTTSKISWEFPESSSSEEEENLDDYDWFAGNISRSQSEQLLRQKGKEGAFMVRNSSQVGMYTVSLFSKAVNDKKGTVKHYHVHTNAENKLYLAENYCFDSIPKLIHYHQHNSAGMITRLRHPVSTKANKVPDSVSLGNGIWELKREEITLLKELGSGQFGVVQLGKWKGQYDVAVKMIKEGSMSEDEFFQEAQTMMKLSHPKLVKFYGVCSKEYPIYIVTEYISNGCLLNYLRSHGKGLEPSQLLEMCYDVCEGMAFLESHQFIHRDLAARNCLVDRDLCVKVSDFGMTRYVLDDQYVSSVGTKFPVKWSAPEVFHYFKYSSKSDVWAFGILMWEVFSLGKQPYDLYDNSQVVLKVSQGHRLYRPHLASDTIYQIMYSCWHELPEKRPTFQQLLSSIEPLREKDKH

[4] = molecular target: T3, Tyrosine-protein kinase Tec (Homo sapiens, UniProt P42680); experiment: Inhibition of Tec (unknown origin) using GST-SLP-76 as peptide substrate incubated for 10 mins in presence of [gamma-33P]ATP by scintillation counter assay
T3 sequence (P42680 whole entry): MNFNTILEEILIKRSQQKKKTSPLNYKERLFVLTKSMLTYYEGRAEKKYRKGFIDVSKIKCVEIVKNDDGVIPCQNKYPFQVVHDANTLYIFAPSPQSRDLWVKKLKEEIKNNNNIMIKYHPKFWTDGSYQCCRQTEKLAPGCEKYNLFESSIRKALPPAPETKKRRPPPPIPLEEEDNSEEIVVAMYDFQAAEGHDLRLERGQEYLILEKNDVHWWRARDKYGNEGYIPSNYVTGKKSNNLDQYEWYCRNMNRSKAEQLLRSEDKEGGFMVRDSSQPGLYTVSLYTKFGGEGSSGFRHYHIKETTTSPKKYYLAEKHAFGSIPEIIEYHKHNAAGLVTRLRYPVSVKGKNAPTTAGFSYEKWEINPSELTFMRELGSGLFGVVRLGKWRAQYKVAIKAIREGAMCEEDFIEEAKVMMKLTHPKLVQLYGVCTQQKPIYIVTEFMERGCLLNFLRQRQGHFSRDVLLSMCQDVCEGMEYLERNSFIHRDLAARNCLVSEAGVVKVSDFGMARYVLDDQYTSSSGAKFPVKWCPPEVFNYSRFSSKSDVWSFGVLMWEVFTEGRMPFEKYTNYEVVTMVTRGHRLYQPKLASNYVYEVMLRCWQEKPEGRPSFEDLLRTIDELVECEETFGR

[5] = molecular target: Glycogen synthase kinase-3 beta (Homo sapiens, UniProt P49841); experiment: Inhibition of GSK-3beta (unknown origin) using GST-SLP-76 as peptide substrate incubated for 10 mins in presence of [gamma-33P]ATP by scintillation counter assay
Glycogen synthase kinase-3 beta, sequence (P49841 whole entry): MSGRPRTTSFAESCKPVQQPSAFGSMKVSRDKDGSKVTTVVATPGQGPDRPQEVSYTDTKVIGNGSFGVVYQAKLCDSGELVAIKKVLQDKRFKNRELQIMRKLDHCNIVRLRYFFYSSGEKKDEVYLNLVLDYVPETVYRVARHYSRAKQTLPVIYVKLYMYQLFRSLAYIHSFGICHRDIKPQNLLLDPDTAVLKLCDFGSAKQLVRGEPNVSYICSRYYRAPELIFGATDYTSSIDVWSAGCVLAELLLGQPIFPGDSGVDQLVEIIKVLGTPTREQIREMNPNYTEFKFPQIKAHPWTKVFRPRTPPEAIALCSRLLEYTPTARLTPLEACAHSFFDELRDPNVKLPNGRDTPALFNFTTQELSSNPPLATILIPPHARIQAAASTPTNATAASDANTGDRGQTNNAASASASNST

[6] = molecular target: Inhibitor of nuclear factor kappa-B kinase subunit beta (Homo sapiens, UniProt O14920); experiment: Inhibition of IKKbeta (unknown origin) using GST-SLP-76 as peptide substrate incubated for 10 mins in presence of [gamma-33P]ATP by scintillation counter assay
Inhibitor of nuclear factor kappa-B kinase subunit beta, sequence (O14920 whole entry): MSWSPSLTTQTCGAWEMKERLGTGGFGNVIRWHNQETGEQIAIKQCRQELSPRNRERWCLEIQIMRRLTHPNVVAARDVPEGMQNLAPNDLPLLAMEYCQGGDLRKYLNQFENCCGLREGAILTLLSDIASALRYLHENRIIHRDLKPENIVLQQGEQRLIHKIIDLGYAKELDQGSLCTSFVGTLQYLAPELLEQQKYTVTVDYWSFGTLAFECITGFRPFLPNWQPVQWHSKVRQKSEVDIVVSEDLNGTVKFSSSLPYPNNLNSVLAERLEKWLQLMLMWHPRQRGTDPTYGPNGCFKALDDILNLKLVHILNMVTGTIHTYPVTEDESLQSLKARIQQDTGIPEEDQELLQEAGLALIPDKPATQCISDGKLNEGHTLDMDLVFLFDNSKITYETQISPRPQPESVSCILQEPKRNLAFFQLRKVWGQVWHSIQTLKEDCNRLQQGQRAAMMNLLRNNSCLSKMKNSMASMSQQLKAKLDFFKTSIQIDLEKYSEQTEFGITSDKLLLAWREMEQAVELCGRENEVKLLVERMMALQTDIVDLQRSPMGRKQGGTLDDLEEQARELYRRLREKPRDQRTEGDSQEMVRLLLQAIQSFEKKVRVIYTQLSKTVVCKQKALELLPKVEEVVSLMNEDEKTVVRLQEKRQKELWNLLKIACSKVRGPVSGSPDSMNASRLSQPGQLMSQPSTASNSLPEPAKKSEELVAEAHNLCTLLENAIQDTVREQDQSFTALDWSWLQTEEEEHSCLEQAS

[7] = molecular target: Tyrosine-protein kinase Lck (Homo sapiens, UniProt P06239); experiment: Inhibition of Lck (unknown origin) using GST-SLP-76 as peptide substrate incubated for 10 mins in presence of [gamma-33P]ATP by scintillation counter assay
Tyrosine-protein kinase Lck, sequence (P06239 whole entry): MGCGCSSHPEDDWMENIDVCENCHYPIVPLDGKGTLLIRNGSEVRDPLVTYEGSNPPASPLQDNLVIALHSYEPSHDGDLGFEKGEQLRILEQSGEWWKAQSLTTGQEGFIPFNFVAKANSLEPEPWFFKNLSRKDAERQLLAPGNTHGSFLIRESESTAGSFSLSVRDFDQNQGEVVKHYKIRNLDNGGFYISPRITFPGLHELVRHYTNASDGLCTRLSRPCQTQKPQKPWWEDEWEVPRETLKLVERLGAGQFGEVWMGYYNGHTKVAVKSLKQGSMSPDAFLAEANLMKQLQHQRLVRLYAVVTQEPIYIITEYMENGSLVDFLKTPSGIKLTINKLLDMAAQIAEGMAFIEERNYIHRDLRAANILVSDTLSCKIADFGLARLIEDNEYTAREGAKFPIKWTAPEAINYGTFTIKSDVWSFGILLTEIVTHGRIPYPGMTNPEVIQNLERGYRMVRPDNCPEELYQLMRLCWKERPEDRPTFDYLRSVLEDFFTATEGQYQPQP

Mus musculus [8] = experiment: Anti-inflammatory activity against ovalbumin induced Balb/c mouse bronchoalveolar lavage assessed as reduction in total cell infiltration administered twice daily for 3 days by microscopic analysis; type: functional, organism-based; details: dose 5-25 mg/kg, route sc, time 3.0 day
Protein kinase C (PKC) = experiment: Inhibition of PKC (unknown origin) using GST-SLP-76 as peptide substrate incubated for 10 mins in presence of [gamma-33P]ATP by scintillation counter assay; type: protein assay, Homo sapiens
Mus musculus [9] = experiment: In vivo inhibition of IL-2 production in Balb/c mouse serum at >=50 mg/kg, sc administered for 15 mins in presence of anti-CD3 antibody by ELISA analysis; type: functional, organism-based
[10] = molecular target: Epidermal growth factor receptor (Homo sapiens, UniProt P00533); experiment: Inhibition of EGFR (unknown origin) using GST-SLP-76 as peptide substrate incubated for 10 mins in presence of [gamma-33P]ATP by scintillation counter assay
Epidermal growth factor receptor, sequence (P00533 whole entry): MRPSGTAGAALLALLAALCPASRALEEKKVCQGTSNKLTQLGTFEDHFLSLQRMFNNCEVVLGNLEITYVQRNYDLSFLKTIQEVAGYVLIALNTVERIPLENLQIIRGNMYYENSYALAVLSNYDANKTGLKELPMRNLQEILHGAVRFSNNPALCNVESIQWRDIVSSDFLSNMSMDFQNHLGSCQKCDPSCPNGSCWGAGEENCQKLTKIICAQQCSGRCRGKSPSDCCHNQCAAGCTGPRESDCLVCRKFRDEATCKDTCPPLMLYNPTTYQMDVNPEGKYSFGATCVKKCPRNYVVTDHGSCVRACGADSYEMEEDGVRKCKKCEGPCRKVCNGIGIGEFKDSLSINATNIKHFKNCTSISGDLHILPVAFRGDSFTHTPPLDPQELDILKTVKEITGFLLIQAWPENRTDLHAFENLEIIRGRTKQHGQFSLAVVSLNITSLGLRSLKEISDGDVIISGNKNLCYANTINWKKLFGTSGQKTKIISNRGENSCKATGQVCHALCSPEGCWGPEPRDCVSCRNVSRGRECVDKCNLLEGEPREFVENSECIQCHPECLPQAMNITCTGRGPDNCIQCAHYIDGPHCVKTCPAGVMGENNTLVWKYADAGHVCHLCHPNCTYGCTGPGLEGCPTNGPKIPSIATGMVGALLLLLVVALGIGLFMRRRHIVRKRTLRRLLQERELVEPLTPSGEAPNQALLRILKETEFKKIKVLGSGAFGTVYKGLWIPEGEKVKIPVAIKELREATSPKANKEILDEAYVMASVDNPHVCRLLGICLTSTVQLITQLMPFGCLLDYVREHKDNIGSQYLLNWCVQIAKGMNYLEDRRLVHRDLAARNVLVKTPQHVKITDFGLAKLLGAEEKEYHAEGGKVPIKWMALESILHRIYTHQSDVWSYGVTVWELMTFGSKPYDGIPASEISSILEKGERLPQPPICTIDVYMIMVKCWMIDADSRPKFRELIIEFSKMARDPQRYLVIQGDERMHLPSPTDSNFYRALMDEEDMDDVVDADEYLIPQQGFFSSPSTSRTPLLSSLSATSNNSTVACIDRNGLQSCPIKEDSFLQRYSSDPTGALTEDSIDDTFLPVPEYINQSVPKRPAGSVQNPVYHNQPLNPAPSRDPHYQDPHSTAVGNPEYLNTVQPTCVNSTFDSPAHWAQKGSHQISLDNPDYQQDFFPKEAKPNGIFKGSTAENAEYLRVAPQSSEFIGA

[11] = molecular target: T1, Tyrosine-protein kinase ITK/TSK (Homo sapiens); experiment: Inhibition of Itk in human Jurkat T cells assessed as inhibition of IL-2 secretion incubated for 16 hrs in presence of anti-CD3 antibody G19-4 by ELISA analysis; type: cell-based

IC50 [1] [µM]	inhibition [2]	IC50 [3] [µM]	IC50 [4] [µM]	IC50 [5] [µM]	IC50 [6] [µM]	IC50 [7] [µM]	IC50 (Protein kinase C (PKC)) [µM]	IC50 [10] [µM]	inhibition [11]	SMILES	Activity (Mus musculus [8])	inhibition (Mus musculus [9])
29	Active	> 50	17	36	> 50	2.4	–	–	–	COc1cc(C)c(Sc2cnc(NC(=O)c3ccc(CNC(C)C(C)(C)C)cc3)s2)cc1C(=O)N1CCN(C(C)=O)CC1 (stereo not drawn)	Dose-Dependent Effect	–
–	Active	> 50	> 50	47.4	> 50	27	21	> 50	Dose-Dependent Effect	CC(=O)N1CCN(C(=O)c2cc(CSc3cnc(NC(=O)c4ccc(CNC(C)C(C)(C)C)cc4)s3)cc(C)c2C)CC1 (stereo not drawn)	–	Active

Source: ChEMBL document CHEMBL5715936, “Selective Itk inhibitors block T-cell activation and murine lung inflammation” (Biochemistry, 2004)
